From PMC10384011, “m-Terphenylamines, Acting as Selective COX-1 Inhibitors, Block Microglia Inflammatory Response and Exert Neuroprotective Activity” (Molecules, 2023)

Legend:
ovine COX-1 = biological target: T1, ovine COX-1 (Ovis aries, UniProt P05979); experiment: Cyclooxygenase colorimetric inhibitor screening assay, COX-1; assay type: biochemical; conditions: for inhibition at 50 µM: ovine COX-1, 50 µM, % Inhibition at 50 µM (converted); for inhibition at 50 µM / IC50: read-out: oCOX-1; for IC50: ovine COX-1, colorimetric kit, triplicate;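 on all read-outs here: COX peroxidase activity read colorimetrically as oxidized TMPD at 590 nm, arachidonic acid as substrate, inhibitors tested at 0.001–50 µM from DMSO stocks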
T1 construct: purchased Cayman Chemicals 701050
T1 sequence (P05979 25-600): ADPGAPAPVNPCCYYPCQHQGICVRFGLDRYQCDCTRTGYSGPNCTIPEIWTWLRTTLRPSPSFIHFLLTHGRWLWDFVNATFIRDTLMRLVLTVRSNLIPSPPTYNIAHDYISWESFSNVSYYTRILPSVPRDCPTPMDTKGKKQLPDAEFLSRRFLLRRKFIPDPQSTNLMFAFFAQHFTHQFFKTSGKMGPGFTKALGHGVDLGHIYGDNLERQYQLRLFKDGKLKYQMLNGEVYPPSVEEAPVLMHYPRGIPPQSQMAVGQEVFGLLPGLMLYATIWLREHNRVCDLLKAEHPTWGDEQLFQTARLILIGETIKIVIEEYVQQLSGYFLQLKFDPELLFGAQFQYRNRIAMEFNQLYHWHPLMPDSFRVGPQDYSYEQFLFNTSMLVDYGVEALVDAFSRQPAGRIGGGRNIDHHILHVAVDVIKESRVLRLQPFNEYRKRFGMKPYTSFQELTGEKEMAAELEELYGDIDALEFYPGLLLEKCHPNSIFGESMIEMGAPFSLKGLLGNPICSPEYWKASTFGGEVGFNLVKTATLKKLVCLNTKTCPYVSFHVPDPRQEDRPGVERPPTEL
Experimental: (§2) Newly synthesized compounds were evaluated for their ability to inhibit ovine COX-1 or human COX-2 enzyme by measuring the extent (%) of enzyme activity inhibition at different concentrations (0.001, 0.01, 0.1, 1, 10, 50 μM). […] The assay kit measures the peroxidase component of COXs that is assayed colorimetrically by monitoring the appearance of oxidized N,N,N′,N′-tetramethyl-p-phenylenediamine (TMPD) a λ = 590 nm. […] Stock solutions of test compounds were dissolved in DMSO.

human COX-2 = biological target: T2, human COX-2 (Homo sapiens, UniProt P35354); experiment: Cyclooxygenase colorimetric inhibitor screening assay, COX-2; assay type: biochemical; conditions: read-out: hCOX-2; for inhibition at 50 µM: human COX-2, 50 µM; for IC50: human COX-2, colorimetric kit;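 on all read-outs here: peroxidase activity of COX-2 followed colorimetrically through formation of oxidized TMPD at 590 nm, with arachidonic acid as substrate, compounds tested from 0.001 to 50 µM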
T2 construct: purchased Cayman Chemicals 701050
T2 sequence (P35354 18-604): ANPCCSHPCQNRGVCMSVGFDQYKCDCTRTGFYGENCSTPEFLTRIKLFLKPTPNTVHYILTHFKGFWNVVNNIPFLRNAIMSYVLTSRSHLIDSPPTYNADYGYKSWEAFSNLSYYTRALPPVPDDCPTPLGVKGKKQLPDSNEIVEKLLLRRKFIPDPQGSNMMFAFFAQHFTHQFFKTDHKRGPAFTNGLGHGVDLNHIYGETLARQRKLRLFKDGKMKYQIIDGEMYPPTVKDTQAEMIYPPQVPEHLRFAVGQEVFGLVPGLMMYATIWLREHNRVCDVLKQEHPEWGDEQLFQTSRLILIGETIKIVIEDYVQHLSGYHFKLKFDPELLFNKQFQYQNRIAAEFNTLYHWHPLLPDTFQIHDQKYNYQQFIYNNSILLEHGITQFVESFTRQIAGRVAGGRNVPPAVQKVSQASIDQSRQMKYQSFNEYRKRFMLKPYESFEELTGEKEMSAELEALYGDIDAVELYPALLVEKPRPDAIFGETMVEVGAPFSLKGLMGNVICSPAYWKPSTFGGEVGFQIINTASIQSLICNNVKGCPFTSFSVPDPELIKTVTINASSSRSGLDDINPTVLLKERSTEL
Experimental: as §2

BV2 microglia cells [1] = experiment: Nitrite release (Griess reaction) in LPS-treated BV2 microglia; assay type: cell-based; conditions: LPS 1 μg/mL, basal = 100
Excerpt: The COX-1 inhibition data prompted us to undertake further work on the activity of compounds 3 in a neuroinflammation situation. Once we had verified that the compounds studied were not toxic per se in microglia BV2 cells (see the data in Table S1), we measured the nitrites released to determine the efficacy of our compounds in reducing microglia activation. Nitric oxide is a potent mediator of the classic activated microglia phenotype (M1); in fact, the lack of nitrite release correlated with an anti-inflammatory microglia (M2) phenotype. Therefore, we evaluated the response of the BV2 microglia cells to a challenge of 1 μg/mL LPS. For this purpose, BV2 microglia cells were incubated with LPS, a well-known agonist of the toll-like receptor 4 (TLR4) that causes a neuroinflammatory response, in combination with increasing concentrations of our COX-1 inhibitors (1, 3, and 10 μM). […] Similar results were observed after 48 h of the LPS treatment.
(§1) Cultures were seeded into flasks containing supplemented medium and kept at 37 °C in a humidified atmosphere of 5% CO2 and 95% air. For assays, BV-2 cells were subcultured in 48-well plates at a seeding density of 1 × 10^5 cells per well. Cells were treated with LPS (Sigma-Aldrich, Madrid, Spain) for 24 or 48 h before confluence in RPMI with 1% FBS.
The NO assay was performed using the previously reported protocols. Briefly, 100 μL of culture supernatants were mixed with the same volume of Griess assay regent (1% sulfanilamide (Sigma Aldrich, Madrid, Spain), 0.1% naphthylethylenediamine dihydrochloride, and 2.5% phosphoric acid). Ten minutes later, the 560-nm absorbance was measured.

BV2 microglia cells [2] = experiment: LPS-induced activated (ramified) phenotype of BV2 microglia; assay type: cell-based; conditions: LPS 1 μg/mL, 24 h
Excerpt: Next, we set out to study the changes in microglia phenotype under this toxicity protocol. As mentioned above, microglia are comprised of variable morphology cells that are always adapting to the surrounding media and, therefore, to physiopathological conditions. Indeed, morphological appearance is well correlated with the different states of microglia activation. The microglia-activated phenotype (M1), which is the classical state of this kind of cell in response to proinflammatory insults such as LPS, is linked with the overexpression of a plethora of cytokines and inflammatory markers, namely TNF, IL-1β, IL-6, MCP-1 or CD11b. All of these markers are commonly associated with morphological changes towards an amoeboid phenotype in primary cultures or in in vivo studies. Nevertheless, it has been recently described that BV2 microglia, as well as macrophages, turn from rounded to spindle-shaped or multipolar phenotypes in response to various M1 proinflammatory stimuli such as LPS/IFNγ or spinal cord injury conditioned media. In this context, we assessed the ability of our compounds to prevent the morphological changes induced by LPS by analyzing the percentage of BV2 ramified cells (multipolar or spindle) over the total BV2 per field following cell incubation with our compounds and 1 μg/mL LPS for 24 h.
as §1

BV2 microglia cells [3] = experiment: ROS production (H2DCFDA) in LPS-treated BV2 microglia; assay type: cell-based; conditions: LPS 1 μg/mL, 24 h
Excerpt: Activation of toll-like receptors (TLRs), particularly the TLR4 subtype, is closely associated with the production of reactive oxygen and nitrogen species that contribute to neuronal death in the CNS. In this connection, NADPH oxidase enzymes are the main ones responsible for ROS production induced by NF-κB nuclear translocation. For this reason, we decided to assess the ROS levels of BV2 microglia cells treated with LPS and the effect of our compounds under this toxicity protocol. To this end, the compounds, at different concentrations (3 μM of 3a, 3b, and 3d and 10 μM of 3c) were incubated with 1 μg/mL LPS for 24 h. After this period, ROS production was measured with the fluorescent probe H2DCFDA. Treatment with LPS increased by 1.75-fold the amount of ROS compared with control cells.
as §1
To measure cellular ROS, we used the molecular probe 2′,7′-dichlorodihydrofluorescein diacetate (H2DCFDA). Glial cells were loaded with 5 µM H2DCFDA as it was previously described (Parada et al., 2015). Fluorescence was measured in a fluorescence microplate reader (FLUOstar Galaxy; BMG Labtech, Offenburg, Germany). Wavelengths of excitation and emission were 485 and 520 nm, respectively. The relative pixel intensity was measured in identical regions with (ImageJ 1.52a software, National Institutes of Health, Bethesda, MD, USA).

[4] = tested on: organotypic hippocampal cultures (OHCs); experiment: Cell death (propidium iodide uptake, CA1) in organotypic hippocampal cultures treated with LPS; assay type: cell-based, Sprague-Dawley rats; conditions: LPS 1 μg/mL, 24 h
Experimental: With these promising data in hand, we selected compound 3b for its study in a more complex preparation. In vivo administration of LPS produces a proinflammatory cascade that causes memory deficits, an increase of inflammatory markers, and impairment of hippocampal glutamatergic transmission, contributing to neuronal death. All of these functional changes have been described to take place mainly in the hippocampus region. Thus, we subjected organotypic hippocampal cultures (OHCs) to LPS (1 μg/mL) to assess the protective effect of COX-1 inhibition. This kind of explant allows us to study the microglia-neuron network in a more complex and physiological model of cerebral insult.
OHCs were conducted on 8–10-day-old Sprague-Dawley rats supplied by the animal facilities of Universidad Autónoma de Madrid (Madrid, Spain). Cultures were prepared according to the methods described by Stoppini et al. with some modifications. […]
Cell death was determined in the CA1 region by staining the OHCs with propidium iodide (PI). Thirty minutes before analyzing fluorescence, slices were incubated with PI (1 µg/mL). Fluorescence was measured in an epifluorescence Olympus BX50WI microscope. […] Fluorescence was measured in each slice using ImageJ.

BV2 microglia cells [5] = experiment: Nitrite release (Griess reaction) in LPS-treated BV2 microglia; assay type: cell-based; conditions: 100 nM, LPS 1 μg/mL, basal = 100

Row | Compound | inhibition at 50 µM (ovine COX-1) [%] | IC50 (ovine COX-1) [µM] | inhibition at 50 µM (human COX-2) [%] | Nitrite Release after 24 h (BV2 microglia cells [1]; 1 μM) [%] | Nitrite Release after 48 h (BV2 microglia cells [1]; 1 μM) [%] | Nitrite Release after 24 h (BV2 microglia cells [1]; 3 μM) [%] | Nitrite Release after 48 h (BV2 microglia cells [1]; 3 μM) [%] | Nitrite Release after 24 h (BV2 microglia cells [1]; 10 μM) [%] | Nitrite Release after 48 h (BV2 microglia cells [1]; 10 μM) [%] | Reduction of the number of BV2 ramified cells (BV2 microglia cells [2]; 3 μM) [%] | COX-1/COX-2 inhibition ratio (ovine COX-1; ovine COX-1 vs human COX-2) | IC50 (human COX-2) [µM] | ROS production induced by LPS (BV2 microglia cells [3]; 3 μM) | COX-1 selectivity (in words) (ovine COX-1; ovine COX-1 vs human COX-2) | Reduction of the number of BV2 ramified cells (BV2 microglia cells [2]; 10 μM) [%] | ROS production induced by LPS (BV2 microglia cells [3]; 100 nM) | Cell death (PI uptake in CA1) induced by LPS [4] | Nitrite Release after 24 h (BV2 microglia cells [5]; 24 h) [%] | Nitrite Release after 48 h (BV2 microglia cells [5]; 48 h) [%]
1 | COc1ccc(-c2cc(N)cc(-c3ccccc3)c2)cc1 [Compound 3e, 4-Methoxy-5′-amino-m-terphenyl] | 73 | 0.9 ± 0.76 | 8 | 124 ± 9 | 144 ± 15 | 110 ± 6 | 133 ± 13 | 103 ± 9 | 131 ± 13 | 60 | – | – | – | – | – | – | – | – | –
2 | Nc1cc(-c2ccccc2)cc(-c2ccccc2)c1 [Compound 3a, 5′-Amino-m-terphenyl] | 86 | 0.8 ± 0.39 | 70 | 130 ± 14 | 145 ± 17 | 110 ± 7 | 119 ± 10 | 122 ± 10 | 120 ± 15 | 60 | around 7 | 5.4 | significantly reverted ROS production almost to basal levels | – | – | – | – | – | –
3 | Nc1cc(-c2ccccc2)cc(-c2ccc(Cl)cc2)c1 [Compound 3c, 4-Chloro-5′-amino-m-terphenyl] | 100 | 4.7 ± 3.04 | – | 135 ± 6 | 181 ± 9 | 117 ± 8 | 163 ± 5 | 110 ± 6 | 138 ± 7 | – | – | > 50 | significantly reverted ROS production almost to basal levels | complete selectivity towards COX-1 | 60 | – | – | – | –
4 | COc1ccc(-n2nc(C(F)(F)F)cc2-c2ccc(Cl)cc2)cc1 [SC-560, reference compound] | – | – | – | – | – | – | – | – | – | – | – | – | – | – | – | significantly reverted ROS production almost to basal levels | prevented | 114 ± 9 | 135 ± 8
